The values below are quoted from earlier work in patent publication US20080171032A1, “DIETARY SUPPLEMENT COMPOSITION AND METHOD OF USE FOR THE TREATMENT AND PREVENTION OF OXIDATIVE STRESS” (priority 2007, published 2008).

For series [1], the system named is mitochondrial membranes.
The test system of series [2] is scleroderma. Particulars: about 12 grams daily.
For series [3], the system named is dermatomyositis. Particulars: two dermatomyositis patients, 15 to 20 grams daily.
Series [4] concerns advanced glycation end-products (AGEs). Conditions: 600 mg/day prior to blood draw.
Series [5] deals with human fibroblasts.
Series [6] has as its system serum lipid oxidation products. Particulars: human, tocotrienol supplementation at 40 mg/day, versus placebo.

For `CC1=C(/C=C/C(C)=C/C=C/C(C)=C/C=C/C=C(C)/C=C/C=C(C)/C=C/C2=C(C)C(=O)[C@@H](O)CC2(C)C)C(C)(C)C[C@H](O)C1=O` [Astaxanthin], the “protection against oxygen-induced mitochondrial membrane damage” value in series [1] is “protection against oxygen-induced mitochondrial membrane damage”.

In the case of `Nc1ccc(C(=O)O)cc1` [PABA, 4-aminobenzoic acid], the solubility in water result is reported as “slight”.

Consider `Nc1ccc(C(=O)[O-])cc1.[K+]` [POTABA, potassium para-aminobenzoate], for which the “patients with mild, moderate or marked skin softening” value in series [2] (224 scleroderma patients) is “Ninety”. In series [2] (scleroderma patients), the adverse events result is given as “no significant adverse events were reported”. Also, in series [3], the clinical improvement result is recorded as “Clinical improvement was noted”.

With `C/C(=C(\CCOP(=O)(O)O)SC(=O)c1ccccc1)N(C=O)Cc1cnc(C)nc1N` [benfotiamine], in series [4], the “AGE formation in the cells of test subjects” value is listed as “significant decrease” and the “glycoxidation in the cells of test subjects” value was “significant decrease”.

Turning to `NCCC(=O)N[C@@H](Cc1cnc[nH]1)C(=O)O` [carnosine], the “effect on cells approaching senescence” value in series [5] (human fibroblasts approaching senescence supplemented with carnosine) was “markedly rejuvenated and their lifespan extended”. The “onset of cell senescence” value in series [5] (human fibroblasts exposed to 50 mM carnosine) is reported as “reduction in onset of cell senescence”.

Regarding tocotrienol, the “lowering of serum lipid oxidation products” value in series [6] was “more effective in lowering serum lipid oxidation products than placebo”.
